Data taken from US20230085307A1, “PYRIDAZINONE COMPOUND AND HERBICIDE” (NISSAN CHEMICAL CORPORATION, priority 2019, published 2023).

The molecules below were run on redroot pigweed (assay: Test Example 4: herbicidal effect by soil treatment (Table 19, symbol N)). Conditions: amount of applied herbicide 320 g/ha.
Format: in vivo, redroot pigweed (Amaranthus retroflexus)
Procedure, shortened: (§1)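 Scoring uses the grading scale of an earlier test, three weeks post-application. Treatment consists of spraying a diluted emulsion formulation across the surface of sterilized diluvial soil in which seeds are buried near 1.5 cm deep; boxes are kept in a greenhouse between 25° C. and 30° C.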

| Compound | herbicidal effect on N: redroot pigweed |
| --- | --- |
| Cc1nn(C)c(=O)c(-c2c(-c3ccc([S+]([O-])C(C)C)cc3)sc3ccc(F)cc23)c1O (centres unmarked) [2-257] | 5 (Herbicidal rate of 90% or more (almost completely withered)) |
| Cc1nn(C)c(=O)c(-c2c(-c3ccc(S(C)(=O)=O)cc3)sc3ccc(F)cc23)c1O [2-258] | 4 (Herbicidal rate of 70% or more and less than 90%) |

The molecules below were run on oval-leafed pondweed (assay: Test Example 1: herbicidal activity, application before weed generation under submerged conditions (Table 16, symbol C)). Conditions: 320 g/ha applied herbicide.
Format: in vivo, oval-leafed pondweed (Monochoria vaginalis)
Procedure, shortened: (§2)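 Alluvial soil was flooded to 4 cm depth, weed seeds were sown mixed and 2.5-leaf rice seedlings were transplanted. On sowing day, the compound's emulsion, diluted in water to a set dose, was applied to the water surface. Plants grew at 25–30 °C and were scored 0–5 after three weeks.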

| Compound | Herbicidal effect on C: oval-leafed pondweed (grade 0-5) |
| --- | --- |
| Cc1nn(C)c(=O)c(-c2c(-c3ccc([S+]([O-])C(C)C)cc3)sc3ccc(F)cc23)c1O (centres unmarked) [2-257] | 2 (Herbicidal rate of 20% or more and less than 40%) |
| Cc1nn(C)c(=O)c(-c2c(-c3ccc(S(C)(=O)=O)cc3)sc3ccc(F)cc23)c1O [2-258] | 0 (Herbicidal rate of 5% or less (almost no effect)) |

What follows are molecules tested on Japanese bulrush (assay: Test Example 2: herbicidal activity, application during weed generation under submerged conditions (Table 17, symbol B)). Conditions: AAH 320 g/ha; application during weed generation, submerged conditions.
Format: in vivo, Japanese bulrush (Schoenoplectus juncoides)
Procedure, shortened: (§3)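 Alluvial soil in Wagner pots was flooded to 4 cm depth and sown with the three weeds together; pots were kept in a greenhouse at 25° C. to 30° C. At the one to two leaf stage, an emulsion formulation diluted in water to a set rate went onto the water surface; scored three weeks later.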

| Compound | herbicidal effect rating, B: Japanese bulrush |
| --- | --- |
| Cc1nn(C)c(=O)c(-c2c(-c3ccc([S+]([O-])C(C)C)cc3)sc3ccc(F)cc23)c1O (centres unmarked) [2-257] | 0 (Herbicidal rate of 5% or less (almost no effect)) |
| Cc1nn(C)c(=O)c(-c2c(-c3ccc(S(C)(=O)=O)cc3)sc3ccc(F)cc23)c1O [2-258] | 0 (Herbicidal rate of 5% or less (almost no effect)) |

What follows are molecules tested on oval-leafed pondweed (assay: Test Example 2: herbicidal activity, application during weed generation under submerged conditions (Table 17, symbol C)). Conditions: AAH 320 g/ha; application during weed generation, submerged conditions.
Format: in vivo, oval-leafed pondweed (Monochoria vaginalis)
Procedure, shortened: as §3

| Compound | herbicidal effect rating, C: oval-leafed pondweed |
| --- | --- |
| Cc1nn(C)c(=O)c(-c2c(-c3ccc([S+]([O-])C(C)C)cc3)sc3ccc(F)cc23)c1O (centres unmarked) [2-257] | 0 (Herbicidal rate of 5% or less (almost no effect)) |
| Cc1nn(C)c(=O)c(-c2c(-c3ccc(S(C)(=O)=O)cc3)sc3ccc(F)cc23)c1O [2-258] | 3 (Herbicidal rate of 40% or more and less than 70%) |

These molecules were tested on chickweed (assay: Test Example 5: herbicidal effect by foliage application, plastic box (Table 20, symbol P)). Conditions: foliage application, AAH 320 g/ha, evaluated three weeks after application.
Format: in vivo, common chickweed (Stellaria media)
Procedure, shortened: (§4)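 Post-emergence foliar test in sterilized diluvial soil. Compound applied as water-diluted emulsion at a predetermined rate to 14-day-old plants; evaluation at three weeks.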

| Compound | P: chickweed, herbicidal effect (criteria 0-5) |
| --- | --- |
| Cc1nn(C)c(=O)c(-c2c(-c3ccc([S+]([O-])C(C)C)cc3)sc3ccc(F)cc23)c1O (centres unmarked) [2-257] | 5 (Herbicidal rate of 90% or more (almost completely withered)) |
| Cc1nn(C)c(=O)c(-c2c(-c3ccc(S(C)(=O)=O)cc3)sc3ccc(F)cc23)c1O [2-258] | 5 (Herbicidal rate of 90% or more (almost completely withered)) |

Each molecule was assayed on persian speedwell (assay: Test Example 5: herbicidal effect by foliage application, plastic box (Table 20, symbol R)). Conditions: foliage application, AAH 320 g/ha, evaluated three weeks after application.
Format: in vivo, Persian speedwell (Veronica persica)
Procedure, shortened: as §4

| Compound | R: persian speedwell, herbicidal effect (criteria 0-5) |
| --- | --- |
| Cc1nn(C)c(=O)c(-c2c(-c3ccc([S+]([O-])C(C)C)cc3)sc3ccc(F)cc23)c1O (centres unmarked) [2-257] | 5 (Herbicidal rate of 90% or more (almost completely withered)) |
| Cc1nn(C)c(=O)c(-c2c(-c3ccc(S(C)(=O)=O)cc3)sc3ccc(F)cc23)c1O [2-258] | 5 (Herbicidal rate of 90% or more (almost completely withered)) |

These molecules were tested on barnyard grass (assay: Test Example 4: herbicidal effect by soil treatment (Table 19, symbol H)). Conditions: amount of applied herbicide 320 g/ha.
Format: in vivo, barnyard grass (Echinochloa crus-galli)
Procedure, shortened: as §1

| Compound | herbicidal effect on H: barnyard grass |
| --- | --- |
| Cc1nn(C)c(=O)c(-c2c(-c3ccc([S+]([O-])C(C)C)cc3)sc3ccc(F)cc23)c1O (centres unmarked) [2-257] | 4 (Herbicidal rate of 70% or more and less than 90%) |
| Cc1nn(C)c(=O)c(-c2c(-c3ccc(S(C)(=O)=O)cc3)sc3ccc(F)cc23)c1O [2-258] | 5 (Herbicidal rate of 90% or more (almost completely withered)) |

Each molecule was assayed on Japanese bulrush (assay: Test Example 1: herbicidal activity, application before weed generation under submerged conditions (Table 16, symbol B)). Conditions: 320 g/ha applied herbicide.
Format: in vivo, Japanese bulrush (Schoenoplectus juncoides)
Procedure, shortened: as §2

| Compound | Herbicidal effect on B: Japanese bulrush (grade 0-5) |
| --- | --- |
| Cc1nn(C)c(=O)c(-c2c(-c3ccc([S+]([O-])C(C)C)cc3)sc3ccc(F)cc23)c1O (centres unmarked) [2-257] | 0 (Herbicidal rate of 5% or less (almost no effect)) |
| Cc1nn(C)c(=O)c(-c2c(-c3ccc(S(C)(=O)=O)cc3)sc3ccc(F)cc23)c1O [2-258] | 3 (Herbicidal rate of 40% or more and less than 70%) |

These molecules were tested on green foxtail (assay: Test Example 4: herbicidal effect by soil treatment (Table 19, symbol G)). Conditions: amount of applied herbicide 320 g/ha.
Format: in vivo, green foxtail (Setaria viridis)
Procedure, shortened: as §1

| Compound | herbicidal effect on G: green foxtail |
| --- | --- |
| Cc1nn(C)c(=O)c(-c2c(-c3ccc([S+]([O-])C(C)C)cc3)sc3ccc(F)cc23)c1O (centres unmarked) [2-257] | 2 (Herbicidal rate of 20% or more and less than 40%) |
| Cc1nn(C)c(=O)c(-c2c(-c3ccc(S(C)(=O)=O)cc3)sc3ccc(F)cc23)c1O [2-258] | 5 (Herbicidal rate of 90% or more (almost completely withered)) |

The molecules below were run on wild oat (assay: Test Example 5: herbicidal effect by foliage application, plastic box (Table 20, symbol I)). Conditions: foliage application, AAH 320 g/ha, evaluated three weeks after application.
Format: in vivo, wild oat (Avena fatua)
Procedure, shortened: as §4

| Compound | I: wild oat, herbicidal effect (criteria 0-5) |
| --- | --- |
| Cc1nn(C)c(=O)c(-c2c(-c3ccc([S+]([O-])C(C)C)cc3)sc3ccc(F)cc23)c1O (centres unmarked) [2-257] | 5 (Herbicidal rate of 90% or more (almost completely withered)) |
| Cc1nn(C)c(=O)c(-c2c(-c3ccc(S(C)(=O)=O)cc3)sc3ccc(F)cc23)c1O [2-258] | 5 (Herbicidal rate of 90% or more (almost completely withered)) |

The molecules below were run on green foxtail (assay: Test Example 5: herbicidal effect by foliage application, plastic box (Table 20, symbol G)). Conditions: foliage application, AAH 320 g/ha, evaluated three weeks after application.
Format: in vivo, green foxtail (Setaria viridis)
Procedure, shortened: as §4

| Compound | G: green foxtail, herbicidal effect (criteria 0-5) |
| --- | --- |
| Cc1nn(C)c(=O)c(-c2c(-c3ccc([S+]([O-])C(C)C)cc3)sc3ccc(F)cc23)c1O (centres unmarked) [2-257] | 4 (Herbicidal rate of 70% or more and less than 90%) |
| Cc1nn(C)c(=O)c(-c2c(-c3ccc(S(C)(=O)=O)cc3)sc3ccc(F)cc23)c1O [2-258] | 5 (Herbicidal rate of 90% or more (almost completely withered)) |

Each molecule was assayed on southern crabgrass (assay: Test Example 5: herbicidal effect by foliage application, plastic box (Table 20, symbol F)). Conditions: foliage application, AAH 320 g/ha, evaluated three weeks after application.
Format: in vivo, southern crabgrass (Digitaria ciliaris)
Procedure, shortened: as §4

| Compound | F: southern crabgrass, herbicidal effect (criteria 0-5) |
| --- | --- |
| Cc1nn(C)c(=O)c(-c2c(-c3ccc([S+]([O-])C(C)C)cc3)sc3ccc(F)cc23)c1O (centres unmarked) [2-257] | 3 (Herbicidal rate of 40% or more and less than 70%) |
| Cc1nn(C)c(=O)c(-c2c(-c3ccc(S(C)(=O)=O)cc3)sc3ccc(F)cc23)c1O [2-258] | 5 (Herbicidal rate of 90% or more (almost completely withered)) |

Each molecule was assayed on chickweed (assay: Test Example 4: herbicidal effect by soil treatment (Table 19, symbol P)). Conditions: amount of applied herbicide 320 g/ha.
Format: in vivo, common chickweed (Stellaria media)
Procedure, shortened: as §1

| Compound | herbicidal effect on P: chickweed |
| --- | --- |
| Cc1nn(C)c(=O)c(-c2c(-c3ccc([S+]([O-])C(C)C)cc3)sc3ccc(F)cc23)c1O (centres unmarked) [2-257] | 4 (Herbicidal rate of 70% or more and less than 90%) |
| Cc1nn(C)c(=O)c(-c2c(-c3ccc(S(C)(=O)=O)cc3)sc3ccc(F)cc23)c1O [2-258] | 4 (Herbicidal rate of 70% or more and less than 90%) |

The molecules below were run on barnyard grass (assay: Test Example 5: herbicidal effect by foliage application, plastic box (Table 20, symbol H)). Conditions: foliage application, AAH 320 g/ha, evaluated three weeks after application.
Format: in vivo, barnyard grass (Echinochloa crus-galli)
Procedure, shortened: as §4

| Compound | H: barnyard grass, herbicidal effect (criteria 0-5) |
| --- | --- |
| Cc1nn(C)c(=O)c(-c2c(-c3ccc([S+]([O-])C(C)C)cc3)sc3ccc(F)cc23)c1O (centres unmarked) [2-257] | 5 (Herbicidal rate of 90% or more (almost completely withered)) |
| Cc1nn(C)c(=O)c(-c2c(-c3ccc(S(C)(=O)=O)cc3)sc3ccc(F)cc23)c1O [2-258] | 5 (Herbicidal rate of 90% or more (almost completely withered)) |

The molecules below were run on wild oat (assay: Test Example 4: herbicidal effect by soil treatment (Table 19, symbol I)). Conditions: amount of applied herbicide 320 g/ha.
Format: in vivo, wild oat (Avena fatua)
Procedure, shortened: as §1

| Compound | herbicidal effect on I: wild oat |
| --- | --- |
| Cc1nn(C)c(=O)c(-c2c(-c3ccc([S+]([O-])C(C)C)cc3)sc3ccc(F)cc23)c1O (centres unmarked) [2-257] | 0 (Herbicidal rate of 5% or less (almost no effect)) |
| Cc1nn(C)c(=O)c(-c2c(-c3ccc(S(C)(=O)=O)cc3)sc3ccc(F)cc23)c1O [2-258] | 3 (Herbicidal rate of 40% or more and less than 70%) |

What follows are molecules tested on windgrass (assay: Test Example 5: herbicidal effect by foliage application, plastic box (Table 20, symbol L)). Conditions: foliage application, AAH 320 g/ha, evaluated three weeks after application.
Format: in vivo, windgrass (Apera spica-venti)
Procedure, shortened: as §4

| Compound | L: windgrass, herbicidal effect (criteria 0-5) |
| --- | --- |
| Cc1nn(C)c(=O)c(-c2c(-c3ccc([S+]([O-])C(C)C)cc3)sc3ccc(F)cc23)c1O (centres unmarked) [2-257] | 5 (Herbicidal rate of 90% or more (almost completely withered)) |
| Cc1nn(C)c(=O)c(-c2c(-c3ccc(S(C)(=O)=O)cc3)sc3ccc(F)cc23)c1O [2-258] | 5 (Herbicidal rate of 90% or more (almost completely withered)) |
